Patent publication US11179412B2, “Methods of treating conditions involving elevated inflammatory response” (University of Pittsburgh—Of the Commonwealth System of …, priority 2017, dated 2021)
Counter-ions that a name gives are not always drawn. Like-named read-outs stand apart in the source and are kept apart here.

Tested on: STING activation (IFNβ release) in iBMDMs
Assay: IFNβ release ELISA after STING ligand (or LPS) stimulation, iBMDMs
Format: cell-based, mouse
How it was run: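 IFNβ released into the medium was quantified by ELISA (mouse or human kit) after iBMDM stimulation with the canonical STING agonist 3′3′-cGAMP or with LPS.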

[1] = iBMDMs, 3′3′-cGAMP 10 μg/ml, 16 hours, compound 10 μM

| Molecule | fold increase in IFN-β release [1] [fold] | further results |
| --- | --- | --- |
| CC(C)N(CCC(c1ccccc1)c1cc(CO)ccc1O)C(C)C (stereo not drawn) [5-hydroxymethyl Tolterodine] | 1.10 | – |
| CCCCc1nc(Cl)c(CO)n1Cc1ccc(-c2ccccc2-c2nn[nH]n2)cc1 [Losartan Potassium (DuP 753), Losartan Potassium] | 1.35 | – |
| CCOC(=O)CCNc1cc(N2CCc3ccccc3CC2)nc(-c2ccccn2)n1.Cl [GSK J4 HCl] | 0.40 | – |
| CO[C@H]1C[C@@H]2CC[C@@H](C)[C@@](O)(O2)C(=O)C(=O)N2CCCC[C@H]2C(=O)O[C@H]([C@H](C)C[C@@H]2CC[C@@H](OP(C)(C)=O)[C@H](OC)C2)CC(=O)[C@H](C)/C=C(\C)[C@@H](O)[C@@H](OC)C(=O)[C@H](C)C[C@H](C)/C=C/C=C/C=C/1C [Ridaforolimus (Deforolimus, MK-8669), Ridaforolimus] | 0.58 | – |
| Oc1nc(-c2ccc(C(F)(F)F)cc2)nc2c1CSCC2 [XAV-939] | 1.00 | – |
| COCCCC/C(=N\OCCN)c1ccc(C(F)(F)F)cc1 [Fluvoxamine maleate] | 1.80 | – |
| C#CCN[C@@H]1CCc2ccccc21 [Rasagiline Mesylate] | 1.77 | – |
| Cc1ccc(NCCCc2ccccc2)c(N)c1 [JSH-23] | 2.80 | – |
| CC(C)(C)n1nc(-c2ccc(Cl)cc2)c2c(N)ncnc21 [PP2] | 0.14 | – |
| Cc1cc(OCc2nnc(SC3CCCC3)n2-c2cccnc2)ccc1-c1ccc(S(C)(=O)=O)cc1 [NMS-873] | 1.90 | – |
| (−)-Parthenolide | 0.16 | – |
| CCCCCCCCCCCCCCCCn1cc[n+](Cc2ccccc2)c1C.[I-] [NH125] | 0.11 | – |
| Nc1nc(OCc2cc(Br)cs2)c2[nH]cnc2n1 [Lomeguatrib] | 1.27 | – |
| O=S(=O)(CC1CS1)c1ccc(Oc2ccccc2)cc1 (stereo not drawn) [SB-3CT] | 0.49 | – |
| O=C1CC(=O)c2c(Cl)c(Cl)c(Cl)c(Cl)c21 [TCID] | 1.43 | – |
| O=C(O)c1cccc(-c2noc(-c3ccccc3F)n2)c1 [Ataluren (PTC124), Ataluren] | 1.74 | – |
| CC1(C)CCC(c2ccc(Cl)cc2)=C(CN2CCN(c3ccc(C(=O)NS(=O)(=O)c4ccc(N[C@H](CCN5CCOCC5)CSc5ccccc5)c(S(=O)(=O)C(F)(F)F)c4)cc3)CC2)C1 [ABT-263 (Navitoclax), Navitoclax] | 1.27 | – |
| Cc1cc(Nc2ccc(NC(=O)c3ccc(Nc4ccnc5ccccc45)cc3)cc2)nc(N)n1 [SGI-1027] | 0.37 | – |
| COc1cc2c(N3CCN(C(=O)Nc4ccc(OC(C)C)cc4)CC3)ncnc2cc1OCCCN1CCCCC1 [Tandutinib (MLN518), Tandutinib] | 0.65 | – |
| COc1cc2c(cc1OC)[C@@H]1Cc3ccc(OC)c(OC)c3CN1CC2 [Rotundine] | 0.54 | – |
| O=C(NCCO)c1cccc(-c2cc(Nc3ccc(OC(F)(F)F)cc3)ncn2)c1 [GNF-5] | 2.94 | – |
| Cc1ccc(NC(=O)c2ccc(CN3CCN(C)CC3)cc2)cc1Nc1nccc(-c2cccnc2)n1 [Imatinib (STI571), Imatinib] | 1.04 | – |

| Molecule | fold increase in IFN-β release [1] [fold] | further results |
| --- | --- | --- |
| C[C@@H]1C(=O)O[C@H]2C[C@@]34[C@H]5C[C@@H](C(C)(C)C)[C@]36[C@@H](OC(=O)[C@@H]6O)O[C@@]4(C(=O)O5)[C@]21O [Ginkgolide A] | 2.14 | – |
| Cc1cnc(-c2cc(N3CCN(C(=O)CCS(C)(=O)=O)CC3)ncc2Cl)c(C)c1 [PF-5274857] | 0.16 | – |
| O=C(CCCCCCC(=O)Nc1ccc([C@H]2O[C@@H](CSc3nc(-c4ccccc4)c(-c4ccccc4)o3)C[C@@H](c3ccc(CO)cc3)O2)cc1)NO [Tubacin] | 1.05 | – |
| O=C(Nc1ccncc1)c1cc([N+](=O)[O-])ccc1Cl [T0070907] | 2.09 | – |
| COc1cc2c(cc1-c1c(C)noc1C)ncc1[nH]c(=O)n([C@H](C)c3ccccn3)c12 [I-BET151 (GSK1210151A)] | 0.40 | – |
| CN1CC(=O)N2[C@H](c3ccc4c(c3)OCO4)c3[nH]c4ccccc4c3C[C@@H]2C1=O [Tadalafil] | 2.66 | – |
| CCOc1nc2cccc(C(=O)O)c2n1Cc1ccc(-c2ccccc2-c2nnn[nH]2)cc1 [Candesartan] | 2.31 | – |
| C=C1C[C@@H]2[C@H](CC[C@]3(C)C(=O)CC[C@@H]23)[C@@]2(C)C=CC(=O)C=C12 [Exemestane] | – | fold increase in IFN-β release (16 h, 10 µM): 1.11 fold |
| CNC(=O)[C@H](Cc1c[nH]c2ccccc12)NC(=O)[C@@H](CC(=O)NO)CC(C)C [Ilomastat (GM6001, Galardin), Ilomastat] | 1.81 | – |
| Nc1nc(CC(=O)Nc2ccc(CCNC[C@H](O)c3ccccc3)cc2)cs1 [Mirabegron] | 0.69 | – |
| COCCOc1ccc2c(c1)ncn2-c1ccc2cccc(N3CCC(N)CC3)c2n1 [CP-673451] | 0.27 | – |
| CNCc1ccc(-c2cc(-c3nc(-c4ccc(S(=O)(=O)C(C)C)cc4)cnc3N)on2)cc1 [VE-822] | 0.86 | – |
| (−)-MK 801 Maleate | 4.76 | – |
| O=c1oc2cc(O)ccc2s1 [Tioxolone] | 1.88 | – |
| Maraviroc | 2.50 | – |
| CC(=O)c1cc([N+](=O)[O-])c(Sc2ccc(F)cc2F)s1 [P22077] | 0.35 | – |
| O=C(/C=C\n1cnc(-c2cc(C(F)(F)F)cc(C(F)(F)F)c2)n1)N1CC(F)(F)C1 [KPT-276] | 0.54 | – |
| CN1C(=O)C(Cc2c[nH]c3ccccc23)NC1=S (stereo not drawn) [Necrostatin-1] | 1.60 | – |
| Cn1cc(C2=C(c3cn(C4CCN(Cc5ccccn5)CC4)c4ccccc34)C(=O)NC2=O)c2ccccc21 [Enzastaurin (LY317615), Enzastaurin] | 1.02 | – |
| C[C@@H]1CCN(C(=O)CC#N)C[C@@H]1N(C)c1ncnc2[nH]ccc12 [Tofacitinib (CP-690550, Tasocitinib), Tofacitinib] | 1.49 | – |
| CCOC(=O)c1cncn1[C@H](C)c1ccccc1 [Etomidate] | 0.86 | – |
| Cc1ccc([C@@H]2O[C@H](CO)[C@@H](O)[C@H](O)[C@H]2O)cc1Cc1ccc(-c2ccc(F)cc2)s1 [Canagliflozin] | 1.58 | – |

| Molecule | fold increase in IFN-β release [1] [fold] | further results |
| --- | --- | --- |
| CCC(=O)NCC[C@@H]1CCc2ccc3c(c21)CCO3 [Ramelteon] | 0.56 | – |
| CC1C(=O)OC2C(O)C34C5CC(C(C)(C)C)C36C(OC(=O)C6O)OC4(C(=O)O5)C12O (stereo not drawn) [Ginkgolide B] | 1.44 | – |
| Cc1cc2c(C(C)C)c(O)c(O)c(C=O)c2c(O)c1-c1c(C)cc2c(C(C)C)c(O)c(O)c(C=O)c2c1O [AT101] | 0.13 | – |
| O=[N+]([O-])C=Cc1ccc2c(c1)OCO2 [3,4-Methylenedioxy-β-nitrostyrene] | 0.26 | – |
| CC(C)(C)c1cc(NC(=O)Nc2ccc(-c3cn4c(n3)sc3cc(OCCN5CCOCC5)ccc34)cc2)no1 [Quizartinib (AC220), Quizartinib] | 0.91 | – |
| CCOC(=O)[C@H]1O[C@@H]1C(=O)N[C@@H](CC(C)C)C(=O)NCCC(C)C [Aloxistatin] | 0.31 | – |
| C[C@@H](c1ncncc1F)[C@](O)(Cn1cncn1)c1ccc(F)cc1F [Voriconazole] | 2.35 | – |
| C[C@H](CS)C(=O)N1CCC[C@H]1C(=O)O [Captopril] | 2.62 | – |
| CC(C)CC(=O)Nc1[nH]nc2c1CN(C(=O)C1CCN(C)CC1)C2(C)C [PHA-793887] | 2.28 | – |
| O=C(Nc1cccnc1)N1CCC(Cc2cccc(Oc3ccc(C(F)(F)F)cn3)c2)CC1 [PF-3845] | 2.14 | – |
| O=C(N/N=C/c1ccc(O)c(O)c1)c1cc2ccccc2cc1O [Dynasore] | 1.62 | – |
| CCn1c(=O)c2c(nc(/C=C/c3ccc(OC)c(OC)c3)n2C)n(CC)c1=O [Istradefylline] | 1.90 | – |
| OCCOc1ccc(/C(=C(/CCCl)c2ccccc2)c2ccccc2)cc1 [Ospemifene] | – | fold increase in IFN-β release: 0.10 fold |
| CCNC(=O)c1noc(-c2cc(C(C)C)c(O)cc2O)c1-c1ccc(CN2CCOCC2)cc1 [AUY922 (NVP-AUY922)] | 0.93 | – |
| CCOc1cc(N2CCC(O)CC2)ccc1Nc1ncc2c(n1)N(C)c1ccccc1C(=O)N2C [XMD8-92] | 2.38 | – |
| CCOC(=O)N1c2ccc(C(F)(F)F)cc2[C@@H](N(Cc2cc(C(F)(F)F)cc(C(F)(F)F)c2)C(=O)OC)C[C@H]1CC [Torcetrapib] | 3.84 | – |
| CO[C@H]1C[C@@H]2CC[C@@H](C)[C@@](O)(O2)C(=O)C(=O)N2CCCC[C@H]2C(=O)O[C@H]([C@H](C)C[C@@H]2CC[C@@H](OCCO)[C@H](OC)C2)CC(=O)[C@H](C)/C=C(\C)[C@@H](O)[C@@H](OC)C(=O)[C@H](C)C[C@H](C)/C=C/C=C/C=C/1C [Everolimus (RAD001), Everolimus] | 1.01 | – |
| O=c1cc(-c2cccc3c2Sc2ccccc2S3)oc(N2CCOCC2)c1 [KU-55933 (ATM Kinase Inhibitor)] | 0.33 | – |
| CCCS(=O)(=O)Nc1ccc(F)c(C(=O)c2c[nH]c3ncc(-c4ccc(Cl)cc4)cc23)c1F [Vemurafenib (PLX4032, RG7204), Vemurafenib] | 0.59 | – |
| NC(=O)Nc1sc(-c2ccc(F)cc2)cc1C(N)=O [TPCA-1] | 2.63 | – |
| Cc1cc(OCCCS(C)(=O)=O)cc(C)c1-c1cccc(COc2ccc3c(c2)OC[C@H]3CC(=O)O)c1 [TAK-875] | 1.17 | – |
| CC(C)[C@H](O)C(=O)N[C@@H](C)C(=O)N[C@@H]1C(=O)N(C)CCc2ccccc21 [Semagacestat (LY450139), Semagacestat] | 1.04 | – |
